Results reported in US20220281846A1, “COMPOUNDS AND COMPOSITIONS FOR THE TREATMENT OF RESPIRATORY DISEASES” (THE UNIVERSITY OF MELBOURNE, priority 2018, published 2022).

How the values were obtained:
ERBB4/HER4 = molecular target: T1, ERBB4/HER4 (Homo sapiens, UniProt Q15303); assay: Kinase inhibition assay (HotSpot), ERBB4/HER4; assay type: biochemical; settings: 10 μM ATP, 10-dose IC50 mode; read-out: Compound IC50 (M) ERBB4/HER4
T1 construct: purchased Reaction Biology Corp

MINK/MINK1 = molecular target: T2, MINK/MINK1 (Homo sapiens, UniProt Q8N4C8); assay: Kinase inhibition assay (HotSpot), MINK/MINK1; assay type: biochemical; settings: 10 μM ATP, 10-dose IC50 mode; read-out: Compound IC50 (M) MINK/MINK1
T2 construct: purchased Reaction Biology Corp
T2 sequence (Q8N4C8 whole entry): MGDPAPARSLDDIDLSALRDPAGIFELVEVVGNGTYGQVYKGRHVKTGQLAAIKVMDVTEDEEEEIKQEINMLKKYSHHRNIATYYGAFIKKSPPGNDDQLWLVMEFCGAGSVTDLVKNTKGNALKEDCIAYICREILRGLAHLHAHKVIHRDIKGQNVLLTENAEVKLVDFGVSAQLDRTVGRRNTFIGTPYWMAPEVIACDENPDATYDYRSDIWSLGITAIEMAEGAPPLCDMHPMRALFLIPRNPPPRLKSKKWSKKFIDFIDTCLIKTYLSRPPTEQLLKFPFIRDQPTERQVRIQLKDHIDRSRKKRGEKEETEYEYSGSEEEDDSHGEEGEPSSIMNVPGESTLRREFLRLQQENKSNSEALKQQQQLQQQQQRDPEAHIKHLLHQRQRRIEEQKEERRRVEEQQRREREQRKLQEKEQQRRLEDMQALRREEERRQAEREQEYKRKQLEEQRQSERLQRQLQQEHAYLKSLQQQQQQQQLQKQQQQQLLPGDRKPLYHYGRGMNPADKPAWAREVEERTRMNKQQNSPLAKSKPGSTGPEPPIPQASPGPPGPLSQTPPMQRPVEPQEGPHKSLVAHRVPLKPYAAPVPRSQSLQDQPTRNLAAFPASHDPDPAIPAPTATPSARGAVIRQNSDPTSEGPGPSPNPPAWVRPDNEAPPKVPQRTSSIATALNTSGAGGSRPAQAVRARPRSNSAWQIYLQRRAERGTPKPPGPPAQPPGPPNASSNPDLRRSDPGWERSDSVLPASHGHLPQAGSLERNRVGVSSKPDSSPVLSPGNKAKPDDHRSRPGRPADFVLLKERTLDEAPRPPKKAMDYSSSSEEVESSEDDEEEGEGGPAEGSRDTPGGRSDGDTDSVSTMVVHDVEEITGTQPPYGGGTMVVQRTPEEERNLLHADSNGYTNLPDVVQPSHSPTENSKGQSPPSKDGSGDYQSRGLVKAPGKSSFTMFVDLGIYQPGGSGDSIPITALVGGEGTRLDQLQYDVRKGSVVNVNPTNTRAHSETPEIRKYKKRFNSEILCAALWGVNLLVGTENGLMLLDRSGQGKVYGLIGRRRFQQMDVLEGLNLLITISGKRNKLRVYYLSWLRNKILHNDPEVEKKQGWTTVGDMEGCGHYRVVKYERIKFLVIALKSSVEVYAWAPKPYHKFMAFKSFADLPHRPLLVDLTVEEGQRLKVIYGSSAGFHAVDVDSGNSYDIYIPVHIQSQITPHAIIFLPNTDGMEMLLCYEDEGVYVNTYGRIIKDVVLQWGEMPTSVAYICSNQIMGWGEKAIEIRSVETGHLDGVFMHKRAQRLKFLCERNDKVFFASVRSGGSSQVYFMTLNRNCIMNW

[1] = test system: TGF-β-induced IL-11 in primary human parenchymal fibroblast cells (pFbs); assay: Human parenchymal fibroblast cell assay, TGF-β-induced IL-11 (ELISA); assay type: cell-based; settings: compounds 0.1-10 μM 30 min prior to TGF-β1, 16-24 hours, 4.00* is assigned to compounds that failed to cause 50% or more inhibition at 10 µM, read-out: pIC50 IL-11 suppression (converted)
Description: Human Parenchymal Fibroblast Cell Assay
Primary human parenchymal fibroblast cells (pFbs) were cultured from parenchyma of lung resection specimens and from non-transplanted lungs of donors without chronic respiratory disease. pFbs were passaged in Dulbecco's Modified Eagle's Media (DMEM) containing 10% (v/v) heat-inactivated fetal calf serum (FCS), 15 mM HEPES, 0.2% (v/v) sodium bicarbonate, 2 mM L-glutamine, 1% (v/v) non-essential amino acids, 1% (v/v) sodium pyruvate, 2.5 μg/mL amphotericin, 5 IU/mL penicillin and 50 μg/mL streptomycin. In some experiments the human lung fibroblast cell line, MRC5 (sourced from ATTC) was used as indicated. The MRC5 line was maintained under the same conditions as described for the pFb.
Prior to experimentation, pFb were incubated in serum-free DMEM containing 0.25% bovine serum albumin (BSA) and insulin-transferrin-selenium-containing supplement (Monomed A; CSL, Parkville, Melbourne, Australia). The cells were incubated with small molecular CK1δ inhibitors (0.1-10 μM) for 30 min prior to […] TGF-β1 (R&D Systems, Minneapolis, Minn.) and the incubation continued for 16-24 hours prior to harvest of supernatant for detection of immunoreactive IL-11. Stock solutions were made as 10 mM in 100% DMSO and diluted to the required concentration in medium containing 0.1% DMSO (final concentration).
Supernatants were collected for measurement of IL-11 (R&D DuoSet, DY218) by ELISA following the manufacturers' instructions. Generally, capture antibodies were initially diluted to the recommended concentrations using PBS buffer, and then used to coat the wells of 96-well microplates (Greiner, #655061) by adding 50 μL/well and incubated overnight at room temperature. Next day, solutions were discarded and wells were washed 3 times with wash buffer (PBS containing 0.1% (v/v) Tween-20) prior to the addition of 200 μL of blocking solution (PBS containing 1% (v/v) BSA) for 1 hour to block non-specific sites. Plates were then washed 3 times with wash buffer and 50 μL of samples or standards were then added to wells and incubated for 2 hours at room temperature. After the incubation, plates were washed 3 times with wash buffer and 50 μL of detection antibodies were added to wells and incubated for 2 hours at room temperature. Plates were then washed 3 times before adding streptavidin-conjugated horseradish peroxidase (at the recommended concentrations) for 45 min. Plates were then washed 5 times with wash buffer and 100 μL TMB substrate solution (equal parts A and B, BD Biosciences) was added to each well until sufficient signals emerged. The reactions were inactivated by adding 100 μL sulphuric acid (2M H2SO4). The absorbance was measured at 450 nm using the Multiskan Ascent® plate reader. The absorbance of the cytokine standards was fitted to a logistic equation, allowing the concentrations of cytokine in samples to be determined.
PIC50 values (the negative log of the concentration suppressing IL-11 level by 50%) for inhibition of TGF-β-induced IL-11 were interpolated from the linear regression of log concentration small molecule versus IL-11 level (Table 4 and FIG. 2).

T1 sequence (Q15303 26-1308): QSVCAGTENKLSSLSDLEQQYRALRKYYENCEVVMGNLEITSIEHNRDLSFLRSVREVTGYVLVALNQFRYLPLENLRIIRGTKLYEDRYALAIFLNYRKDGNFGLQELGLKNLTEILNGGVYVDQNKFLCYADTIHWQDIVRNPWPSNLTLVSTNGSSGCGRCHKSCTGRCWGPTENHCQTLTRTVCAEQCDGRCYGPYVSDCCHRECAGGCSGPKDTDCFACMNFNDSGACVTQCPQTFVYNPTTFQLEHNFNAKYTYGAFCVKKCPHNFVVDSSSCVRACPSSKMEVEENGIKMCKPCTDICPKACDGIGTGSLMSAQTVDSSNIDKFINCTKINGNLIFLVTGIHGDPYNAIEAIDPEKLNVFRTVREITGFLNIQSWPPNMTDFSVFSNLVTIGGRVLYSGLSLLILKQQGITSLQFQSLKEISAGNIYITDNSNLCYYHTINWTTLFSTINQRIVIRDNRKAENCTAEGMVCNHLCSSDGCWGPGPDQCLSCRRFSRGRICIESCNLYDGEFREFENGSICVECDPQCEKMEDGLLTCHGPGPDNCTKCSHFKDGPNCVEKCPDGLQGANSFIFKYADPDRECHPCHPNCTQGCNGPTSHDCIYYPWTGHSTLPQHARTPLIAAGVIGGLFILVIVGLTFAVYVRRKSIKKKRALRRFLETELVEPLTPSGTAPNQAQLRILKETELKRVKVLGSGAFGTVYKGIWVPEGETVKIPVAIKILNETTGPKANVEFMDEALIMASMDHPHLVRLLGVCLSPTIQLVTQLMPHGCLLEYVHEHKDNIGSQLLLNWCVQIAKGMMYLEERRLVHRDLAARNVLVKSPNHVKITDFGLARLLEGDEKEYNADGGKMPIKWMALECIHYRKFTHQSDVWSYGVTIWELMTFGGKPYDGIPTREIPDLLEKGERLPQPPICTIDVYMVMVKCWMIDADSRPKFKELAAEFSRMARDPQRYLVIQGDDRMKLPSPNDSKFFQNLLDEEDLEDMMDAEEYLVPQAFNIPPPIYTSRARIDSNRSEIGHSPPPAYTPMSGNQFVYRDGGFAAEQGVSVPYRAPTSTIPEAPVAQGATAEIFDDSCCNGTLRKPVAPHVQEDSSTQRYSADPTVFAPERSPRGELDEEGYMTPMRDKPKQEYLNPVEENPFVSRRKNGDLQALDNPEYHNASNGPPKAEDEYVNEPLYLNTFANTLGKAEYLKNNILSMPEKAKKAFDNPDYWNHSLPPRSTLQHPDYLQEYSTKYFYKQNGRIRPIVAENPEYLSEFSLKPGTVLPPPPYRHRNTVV

## Nc1nccc(-c2c(-c3ccc(F)cc3)ncn2C2CCC(F)(F)CC2)n1 [ZH3-138, 4-(1-(4,4-Difluorocyclohexyl)-4-(4-fluorophenyl)-1H-imidazol-5-yl)pyrimidin-2-amine]
ERBB4/HER4
  IC50: 9.98e-06 M
MINK/MINK1
  IC50: 1.15e-06 M
[1]
  IC50: 20 µM
